Measured values as given in patent publication US10064876B2, “Bile acid receptor agonism for treating addiction” (Vanderbilt University, priority 2015, dated 2018).
Entries after “also recorded” stand apart in the source; their conditions may differ.

Tests used:
C57BL/6J mice [1] = test: cocaine-induced locomotion in OCA-treated mice; format: in vivo, mouse; conditions: OCA 10 mg/kg orally, chronic, vs vehicle
Protocol: CPP was performed as previously described, with modifications (Graham D L, et al. (2013). Mol Psychiatry. 18(9):961-962). Briefly, mice were weighed and then acclimated to the testing room for at least 20 minutes prior to testing each day. During the first phase (pre-conditioning, day 1), mice were placed on the grid floor side of a two chamber apparatus. For 30 min, the mice had free access to both sides of the apparatus, which each contained their own distinct visual and tactile cues. During the second phase (conditioning, days 2-9), on alternate days mice were restricted to one side or the other of the apparatus for 30 min by use of a dividing door. Just prior to being placed in the chamber, each mouse was given an injection of either cocaine (20 mg/kg, i.p.) or saline (i.p.). […] Only the first 20 minutes of pre-conditioning and post-conditioning was used in the calculation of % CPP. […] Following 20 minutes of acclimation to the testing room, mice were initially placed in open field chambers for 60 min and ambulatory distance was recorded. […] Finally, mice were removed again and injected with cocaine (20 mg/kg, i.p.) before being placed back in the chamber for an additional 120 minutes. […] Jellies were composed of gelatin (10% w/v), sucralose (18.5% w/v), artificial strawberry flavoring (8% v/v); beta cyclodextrin (2% w/v) in water. […]

[2] = body weight during chronic OCA treatment; format: in vivo, mouse; conditions: OCA 10 mg/kg orally vs vehicle, throughout the 4-week study
Description: Jellies were composed of gelatin (10% w/v), sucralose (18.5% w/v), artificial strawberry flavoring (8% v/v); beta cyclodextrin (2% w/v) in water. […] Jellies containing vehicle contained the same amount of beta cyclodextrin. Mice were given jellies by voluntary oral administration six days per week for four weeks. They were given the jellies between 3 pm and 6 pm by placing each mouse into an open field chamber containing the jelly. To ensure that mice consumed the jellies consistently, all mice were initially trained to eat jellies without drug for 5 days prior to drug/vehicle jelly administration. Mice in this group underwent behavioral testing for cocaine conditioned place preference after 2 weeks of chronic drug administration. During this time, drug administrations were continued until sacrifice.

[3] = system: AMPA receptor-mediated excitatory post-synaptic currents (EPSCs) in NAc medium spiny neurons; test: whole-cell electrophysiology, EPSC amplitude in ex vivo brain slices; format: cell-based, mouse; conditions: 10 μM OCA (FIG. 29B legend), perfused 10 min, holding at −70 mV, 50 μM picrotoxin
Protocol: Ex vivo mouse sagittal brain slices were prepared as previously described (Grueter, B. A., et al. Nat Neurosci 13:1519-1525 (2010)). Briefly, mice were acutely anesthetized using isoflurane and sacrificed by rapid decapitation. Brains were submerged in ice-cold sucrose dissecting solution (80 mM NaCl, 2.5 mM KCl, 7 mM MgCl2, 0.5 mM CaCl2, 1.25 mM NaH2PO4, 25 mM NaHCO3, 75 mM sucrose, and 25 mM glucose) and 250 μm thick slices were cut using the Leica 200VT Vibratome. Slices were allowed to recover for 10-15 min at 35° C. in an N-methyl D-glucamine (NMDG) based recovery solution (2.5 mM KCl, 20 mM HEPES, 1.2 mM NaH2PO4, 25 mM glucose, 93 mM NMDG, 30 mM NaHCO3, 5 mM sodium ascorbate, 3 mM sodium pyruvate, 10 mM MgSO4, and 0.5 mM CaCl2) before being transferred to a room temperature ACSF holding chamber for one hour prior to use. ASCF used for holding chamber and recordings contained 120 mM NaCl, 2.5 mM KCL, 1.5 mM MgCl2, 2.5 mM CaCl2, 1 mM NaH2PO4, 25 mM NaHCO3, and 10 mM glucose. […] Evoked responses were elicited by electrical stimulation via the Iso-flex stimulation isolator and recorded using the Axopatch Multiclamp 700B amplifier and Axon Digidata 1550 low-noise data acquisition digitizer. […] Peak EPSC amplitude was measured for the duration of the experiment and normalized to the first 10 min. […]

C57BL/6J mice [4] = test: cocaine conditioned place preference (CPP) in mice under chronic OCA; format: in vivo, mouse; conditions: OCA 10 mg/kg orally six days a week for four weeks vs vehicle, CPP started after 2 weeks, cocaine 20 mg/kg i.p.
Protocol: CPP was performed as previously described, with modifications (Graham D L, et al. (2013). Mol Psychiatry. 18(9):961-962). Briefly, mice were weighed and then acclimated to the testing room for at least 20 minutes prior to testing each day. During the first phase (pre-conditioning, day 1), mice were placed on the grid floor side of a two chamber apparatus. For 30 min, the mice had free access to both sides of the apparatus, which each contained their own distinct visual and tactile cues. During the second phase (conditioning, days 2-9), on alternate days mice were restricted to one side or the other of the apparatus for 30 min by use of a dividing door. […] During this time, the mouse's locomotor activity was measured by infrared sensors and used to determine cocaine-induced locomotor sensitization. […] Thus mice were given full access to both compartments and their time spent on each side was measured. % CPP was calculated as the time spent on the cocaine-paired side between post-conditioning minus the time spent on the cocaine-paired side during pre-conditioning divided by the time spent on the saline-paired side during pre-conditioning. […] Locomotor sensitization to cocaine was determined by the ambulatory distance on days when mice received cocaine during the conditioning phase of CPP. […]

[5] = phase III clinical trial, hepatic steatosis; cited from earlier work
Lipoprotein lipase (Lpl) = test: hepatic gene expression by RNA-seq; format: in vivo, mouse; conditions: liver
Protocol: The transcriptional sequencing was implemented with modifications of the standard Illumina methods (Bentley, D. R. et al. Nature 456, 53-59 (2008)). Sequencing reactions were performed using the Illumina HiSeq (v3 chemistry). Initial QC quantification of the extracted total RNA was done by using Qubit Fluorometer (Invitrogen). Agilent 2100 Bioanalyzer was used to check the quality of the extracted RNA from both the samples. About 30 ng of total RNA was amplified using the NuGEN Technologies Ovation RNA amplification kit optimized for RNA sequencing. The output is double-stranded complementary DNA (cDNA) that was sheared using the Covaris instrument to an average insert size of 300 bp. The sheared DNA entered the standard Illumina TruSeq library preparation protocol at the standard end-repair step. […] Following LM-PCR, the samples were purified and assessed for quality using the Agilent Bioanalyzer. Final quantitation was performed using the KAPA Biosystems Kapa Library Quant kit. […]
Multiple stages of quality control (QC) on sequencing data was carried out. […] Raw data were aligned with TopHat 2 against mouse MM10 genome, and read count data were obtained using HTSeq, DESeq (Anders, S. & Huber, W. Genome Biol. 11, R106 (2010)), edgeR (Robinson, M. D., et al. Bioinformatics 26, 139-140 (2010)) and baySeq (Hardcastle, T. J. & Kelly, K. A. BMC Bioinformatics 11, 422 (2010)). […]

FXR = conditions: Sayin 2013; Li 2013; cited from earlier work

## CC[C@H]1[C@@H](O)[C@@H]2[C@H](CC[C@]3(C)[C@@H]([C@H](C)CCC(=O)O)CC[C@@H]23)[C@@]2(C)CC[C@@H](O)C[C@@H]12 [OCA, (4R)-4-[(3R,5S,6R,7R,8S,9S,10S,13R,14S,17R)-6-Ethyl-3,7-dihydroxy-10,13-dimethyl-2,3,4,5,6,7,8,9,11,12,14,15,16,17-tetradecahydro-1H-cyclopenta[a]phenanthren-17-yl]pentanoic acid]
C57BL/6J mice [1]
  cocaine-induced locomotion: impaired
[2]
  body weight: No differences
[3]
  EPSC amplitude in NAc medium spiny neurons: robust depression; also recorded: reduced
C57BL/6J mice [4]
  cocaine CPP (preference for the cocaine-paired chamber, % CPP): decreased; also recorded: reduced preference
C57BL/6J mice [4]; listed as 6-ECDCA
  cocaine CPP (preference for the cocaine-paired chamber, % CPP): significantly reduced
[5]
  clinical efficacy: clinical efficacy
  safety profile: excellent safety profile

## COC(=O)/C=C/c1cccc(N(Cc2ccc(-c3ccc(N(C)C)cc3)cc2)C(=O)C2CCCCC2)c1 [fexaramine]
Lipoprotein lipase (Lpl)
  Lpl hepatic expression, increase relative to DIO controls: 2.4 fold

## C[C@H](CCC(=O)NCCS(=O)(=O)O)[C@H]1CC[C@H]2[C@@H]3[C@@H](O)[C@@H](O)[C@@H]4C[C@H](O)CC[C@]4(C)[C@H]3CC[C@]12C [TβMCA, 5β-cholanic acid-3α,6β,7β-triol-N-[2-sulphoethyl]-amide]
FXR
  FXR antagonist activity: potent FXR antagonist
